In ChEMBL document CHEMBL1201862, “PubChem BioAssay data set” (2004):
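Protocol summary: plate cells (96-well), add compound at 5 concentrations, incubate 48 h, interpolate endpoints linearly. GI50: concentration for 50% inhibition of growth.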 Calls of active or inactive are those of the source. No stated cut-off is given here; in the data, active = GI50 up to about 1.1 µM and inactive = higher.

Assays:
Assay in all cases: NCI tumour cell line growth inhibition, 48 h
HOP-62 = system: HOP-62
COLO 205 = system: COLO 205
OVCAR-8 = system: OVCAR-8
HL-60 = system: HL-60
SK-MEL-2 = system: SK-MEL-2
SF-268 = system: SF-268
HCT-116 = system: HCT-116
SK-OV-3 = system: SK-OV-3
U-251 = system: U-251
CAKI-1 = system: CAKI-1
NCI-H522 = system: NCI-H522
HCC 2998 = system: HCC 2998
HT-29 = system: HT-29
NCI-H226 = system: NCI-H226
OVCAR-5 = system: OVCAR-5
ACHN = system: ACHN
UO-31 = system: UO-31
SNB-19 = system: SNB-19
OVCAR-3 = system: OVCAR-3
Malme-3M = system: Malme-3M

Row | Compound | GI50 (HOP-62) | GI50 (COLO 205) | GI50 (OVCAR-8) | GI50 (HL-60) | GI50 (SK-MEL-2) | GI50 (SF-268) | GI50 (HCT-116) | GI50 (SK-OV-3) | GI50 (U-251) | GI50 (CAKI-1) | GI50 (NCI-H522) | GI50 (HCC 2998) | GI50 (HT-29) | GI50 (NCI-H226) | GI50 (OVCAR-5) | GI50 (ACHN) | GI50 (UO-31) | GI50 (SNB-19) | GI50 (OVCAR-3) | GI50 (Malme-3M)
1 | Cc1cccc(C)c1NC(=O)C(=O)C1C(=O)N(c2ccccc2)N=C1N (stereo not drawn) | > 100 µM (inactive) | > 100 µM (inactive) | > 100 µM (inactive) | > 100 µM (inactive) | > 100 µM (inactive) | > 100 µM (inactive) | > 100 µM (inactive) | > 100 µM (inactive) | > 100 µM (inactive) | > 100 µM (inactive) | > 100 µM (inactive) | > 100 µM (inactive) | > 100 µM (inactive) | > 100 µM (inactive) | > 100 µM (inactive) | > 100 µM (inactive) | > 100 µM (inactive) | > 100 µM (inactive) | > 100 µM (inactive) | > 100 µM (inactive)
2 | O=C1C=C(Br)c2c(-c3ccccc3)oc3cccc1c23 | 34.4 µM (inactive) | > 63.1 µM (inactive) | 58.2 µM (inactive) | 19.1 µM (inactive) | 71.8 µM (inactive) | 20.2 µM (inactive) | 25.2 µM (inactive) | 54.1 µM (inactive) | 18.4 µM (inactive) | > 76.9 µM (inactive) | 31.6 µM (inactive) | 99.8 µM (inactive) | > 63.4 µM (inactive) | > 80.9 µM (inactive) | > 100 µM (inactive) | 49 µM (inactive) | > 61.2 µM (inactive) | 42.1 µM (inactive) | > 57.1 µM (inactive) | 72.3 µM (inactive)
3 | COc1cc2c(cc1O)CC[C@@H]1C2CC[C@@]2(C)C1CC[C@@H]2O (stereo partly drawn) | 2.28 µM (inactive) | 36.7 µM (inactive) | 2 µM (inactive) | 0.47 µM (active) | 1.32 µM (inactive) | 3.43 µM (inactive) | 1.19 µM (inactive) | 3.22 µM (inactive) | 1.16 µM (inactive) | 13.5 µM (inactive) | 0.482 µM (active) | 9.62 µM (inactive) | 21 µM (inactive) | 48.5 µM (inactive) | 37 µM (inactive) | 9.84 µM (inactive) | 6.65 µM (inactive) | 16.3 µM (inactive) | 0.634 µM (active) | 0.771 µM (active)
4 | CN(C)C(=S)SCC(N)=O | > 100 µM (inactive) | > 100 µM (inactive) | > 100 µM (inactive) | > 100 µM (inactive) | > 100 µM (inactive) | > 100 µM (inactive) | > 100 µM (inactive) | > 100 µM (inactive) | > 100 µM (inactive) | > 100 µM (inactive) | > 100 µM (inactive) | > 100 µM (inactive) | > 100 µM (inactive) | 45.3 µM (inactive) | > 100 µM (inactive) | > 100 µM (inactive) | – | > 100 µM (inactive) | > 100 µM (inactive) | > 100 µM (inactive)
5 | COC(=O)C1CCC(=O)N1C(c1ccc2c(c1)OCO2)c1cc(OC)c(OC)c(OC)c1 (stereo not drawn) | > 100 µM (inactive) | > 100 µM (inactive) | > 100 µM (inactive) | > 100 µM (inactive) | > 100 µM (inactive) | > 100 µM (inactive) | > 100 µM (inactive) | > 100 µM (inactive) | > 100 µM (inactive) | > 100 µM (inactive) | 6.35 µM (inactive) | > 100 µM (inactive) | > 100 µM (inactive) | > 100 µM (inactive) | > 100 µM (inactive) | > 100 µM (inactive) | > 100 µM (inactive) | > 100 µM (inactive) | > 100 µM (inactive) | > 100 µM (inactive)
6 | CCOC(=O)c1c(-c2ccccc2)c(C(OC(c2ccccc2)c2c(-c3ccccc3)c(C(=O)OCC)n3ccccc23)c2ccccc2)c2ccccn12 (stereo not drawn) | > 100 µM (inactive) | > 100 µM (inactive) | > 100 µM (inactive) | > 100 µM (inactive) | > 100 µM (inactive) | > 100 µM (inactive) | > 100 µM (inactive) | > 100 µM (inactive) | – | > 100 µM (inactive) | > 100 µM (inactive) | > 100 µM (inactive) | > 100 µM (inactive) | > 100 µM (inactive) | > 100 µM (inactive) | > 100 µM (inactive) | > 100 µM (inactive) | > 100 µM (inactive) | > 100 µM (inactive) | > 100 µM (inactive)
7 | Cc1ccc2c(O)cc(-c3ccccc3)nc2n1 | 0.366 µM (active) | 0.0378 µM (active) | 0.217 µM (active) | 0.0255 µM (active) | 0.103 µM (active) | 1.56 µM (inactive) | 0.0507 µM (active) | 0.105 µM (active) | 0.0875 µM (active) | 0.0564 µM (active) | 0.0532 µM (active) | 0.157 µM (active) | 0.0378 µM (active) | 0.472 µM (active) | 2.56 µM (inactive) | 0.845 µM (active) | 0.593 µM (active) | 0.309 µM (active) | 0.0346 µM (active) | 0.0867 µM (active)
